# Measurements published in US9480679B2, “Methods for treating malaria, tuberculosis and MAC diseases” (priority 2009, dated 2016).
# “And” between values parts separate entries of the source, which are not always exact repeats. Equal values may be shown once. Read-outs that look alike come from different tables or passages of the source.
# Columns and labels:
# [1] = test system: P. falciparum NF54; experiment: In vitro P. falciparum 72 hour assay (48+24); type: cell-based; conditions: Plasmodium falciparum
# Experimental: EXAMPLE. In vitro and in vivo activity against different species of Plasmodium parasites. CEM-101 was tested against intra-erythrocytic forms of P. falciparum derived from asynchronous cultures of the strain […]. […] CEM-101 was followed for 120 h. CEM-101 has delayed activity when compared to other agents.
# In vitro P. falciparum data for CEM-101 in the 72 h Assay (48+24)
# [2] = test system: P. falciparum NF54; experiment: In vitro P. falciparum 120 hour assay (96+24); type: cell-based; conditions: Plasmodium falciparum
# Experimental: EXAMPLE. In vitro and in vivo activity against different species of Plasmodium parasites. CEM-101 was tested against intra-erythrocytic forms of P. falciparum derived from asynchronous cultures of the strain […]. Parasite growth over 120 h was measured by the incorporation of radiolabelled [^3H]hypoxanthine (in hypoxanthine free culture medium) added after 96 h of drug incubation and 24 h prior to the termination of the test. CEM-101 was followed for 120 h. CEM-101 has delayed activity when compared to other agents.
# In vitro P. falciparum data for CEM-101 in the 120 h Assay (96+24)
# [3] = test system: replicating M. tuberculosis; conditions: reported values; cited from earlier work
# [4] = test system: M. tuberculosis; conditions: 100 mg/kg once daily for 3 weeks (Zhu 2008); cited from earlier work
# [5] = test system: M. avium; conditions: Bermudez 2001; cited from earlier work
# [6] = test system: P. berghei; experiment: Murine P. berghei model, oral 1x or 4x 100 mg/kg; type: in vivo; conditions: mice; for Parasitized RBC over 100 (made by FACS): individual animals
# Experimental: EXAMPLE. CEM-101 activity in infected mice.
# EXAMPLE. CEM-101 was tested in the murine P. berghei model as described by Vennerstrom et al. Nature 430(7002):900-904 (2004), the disclosure of which is incorporated herein by reference.
# [7] = test system: M. avium LPR ATCC 49601; experiment: Murine model of M. avium infection, CFU in spleens and lungs; type: in vivo; conditions: mice, 200 mg/kg orally 5 days/week for 4 weeks; P<0.05
# [8] = test system: M. tuberculosis; conditions: reported in vitro activity; cited from earlier work
# [9] = test system: replicating M. tuberculosis; experiment: Microplate Alamar Blue Assay (MABA), replicating culture; type: cell-based; conditions: two experiments
# [10] = test system: replicating M. tuberculosis; experiment: Aero RLU (Relative Light Units under aerobic conditions), replicating culture; type: cell-based; conditions: two experiments
# [11] = test system: M. avium complex; experiment: Broth dilution MIC versus M. avium complex isolates; type: cell-based, Mycobacterium avium
# [12] = NF54, 120 h assay (96+24), read-out: IC50 NF54
# [13] = NF54, 120 hour assay (96+24), read-out: IC50 NF54 Test 1
# [14] = NF54, 120 hour assay (96+24), read-out: IC50 NF54 Test 2
# [15] = NF54, 120 hour assay (96+24), read-out: IC50 NF54 Test 3
structure (smiles),measurement,setting,value
C[C@H]1[C@H](OC(=O)CCC(=O)O)O[C@@H]2O[C@@]3(C)CC[C@H]4[C@H](C)CC[C@@H]1[C@@]24OO3 [Artesunate],IC50,"[1]; NF54, 72 h, read-out: IC50 NF54 TEST 1",3 ng/mL
same,IC50,"[1]; NF54, 72 h, read-out: IC50 NF54 TEST 2",3.2 ng/mL
same,IC50,"[1]; NF54, 72 h, read-out: IC50 NF54 TEST 3",3 ng/mL
same,IC50,"[1]; NF54, 72 h, read-out: IC50 NF54 TEST 4",2.8 ng/mL
same,IC50,"[1]; NF54, 72 h, read-out: IC50 NF54 Test 1",3 ng/mL
same,IC50,"[1]; NF54, 72 h, read-out: IC50 NF54 Test 2",3.2 ng/mL
same,IC50,"[1]; NF54, 72 h, read-out: IC50 NF54 Test 3",3 ng/mL
same,IC50,"[1]; NF54, 72 h, read-out: IC50 NF54 Test 4",2.8 ng/mL
same,IC50,"[2]; NF54, 120 h, read-out: IC50 NF54",3.3 ng/mL
same,IC50,"[2]; NF54, 120 h, read-out: IC50 NF54 Test 1",4.2 ng/mL
same,IC50,"[2]; NF54, 120 h, read-out: IC50 NF54 Test 2",3.9 ng/mL
same,IC50,"[2]; NF54, 120 h, read-out: IC50 NF54 Test 3",3.3 ng/mL
CC[C@H]1OC(=O)[C@H](C)C(=O)[C@H](C)[C@@H](O[C@@H]2O[C@H](C)C[C@H](N(C)C)[C@H]2O)[C@](C)(OC/C=C/c2cnc3ccccc3c2)C[C@@H](C)C(=O)[C@H](C)[C@H]2NC(=O)O[C@@]21C [Cethromycin],MABA MIC,[3],4000 ng/mL
same,reduction of CFU in the lungs of mice,[4],failed to significantly reduce CFU
same,bactericidal activity against M. avium,[5],lack of significant bactericidal activity
CCN(CC)CCCC(C)Nc1ccnc2cc(Cl)ccc12 (stereo not shown) [Chloroquine],IC50,"[1]; NF54, 72 h assay (48+24), read-out: IC50 NF54 TEST 1",4.4 ng/mL
same,IC50,"[1]; NF54, 72 h assay (48+24), read-out: IC50 NF54 TEST 2",5.4 ng/mL
same,IC50,"[1]; NF54, 72 h assay (48+24), read-out: IC50 NF54 TEST 3",4.4 ng/mL
same,IC50,"[1]; NF54, 72 h assay (48+24), read-out: IC50 NF54 TEST 4",4.8 ng/mL
same,IC50,"[1]; NF54, 72 hour assay (48+24), read-out: IC50 NF54 Test 1",4.4 ng/mL
same,IC50,"[1]; NF54, 72 hour assay (48+24), read-out: IC50 NF54 Test 2",5.4 ng/mL
same,IC50,"[1]; NF54, 72 hour assay (48+24), read-out: IC50 NF54 Test 3",4.4 ng/mL
same,IC50,"[1]; NF54, 72 hour assay (48+24), read-out: IC50 NF54 Test 4",4.8 ng/mL
same,IC50,[2]; [12],4.7 ng/mL
same,IC50,[2]; [13],4.6 ng/mL
same,IC50,[2]; [14],4.6 ng/mL
same,IC50,[2]; [15],4.7 ng/mL
CC[C@H]1OC(=O)[C@H](C)C(=O)[C@H](C)[C@@H](O[C@@H]2O[C@H](C)C[C@H](N(C)C)[C@H]2O)[C@](C)(OC)C[C@@H](C)C(=O)[C@H](C)[C@H]2N(CCCCn3cnc(-c4cccnc4)c3)C(=O)O[C@]12C [telithromycin],MABA MIC,[3],128000 ng/mL
same,bactericidal activity against M. avium,[5],lack of significant bactericidal activity
"CC[C@H]1OC(=O)[C@H](C)[C@@H](O[C@H]2C[C@@](C)(OC)[C@@H](O)[C@H](C)O2)[C@H](C)[C@@H](O[C@@H]2O[C@H](C)C[C@H](N(C)C)[C@H]2O)[C@](C)(O)C[C@@H](C)CN(C)[C@H](C)[C@@H](O)[C@]1(C)O [Azithromycin, reference compound]",Activity (%),"[6]; 1 × 100 mg/kg oral, DMSO",70.39%
same,Survival,"[6]; 1 × 100 mg/kg oral, DMSO",14.0 days
same,Activity (%),"[6]; 1 × 100 mg/kg oral, HPMC",65.19%
same,Survival,"[6]; 1 × 100 mg/kg oral, HPMC",14.0 days
same,Activity (%),"[6]; 4 × 100 mg/kg oral, DMSO",99.11%
same,Cure (%),"[6]; 4 × 100 mg/kg oral, DMSO",0%
same,Survival,"[6]; 4 × 100 mg/kg oral, DMSO, survivors sacrificed on Day 31",30.0 days
same,Activity (%),"[6]; 4 × 100 mg/kg oral, HPMC",99.13%
same,Cure (%),"[6]; 4 × 100 mg/kg oral, HPMC",0%
same,Survival,"[6]; 4 × 100 mg/kg oral, HPMC, survivors sacrificed on Day 31",24.0 days
same,blood from treated animals parasite free or not,[6]; 4× 100 mg/kg p.o.,is not
same,Visual Observation (parasites in blood),"[6]; 4× 100 mg/kg p.o., DMSO",pos
same,Parasitized RBC over 100 (made by FACS),"[6]; 4× 100 mg/kg p.o., DMSO, 100 mg/kg",34.32 and 2.20 and 36.31
same,Visual Observation (parasites in blood),"[6]; 4× 100 mg/kg p.o., HPMC",pos
same,Parasitized RBC over 100 (made by FACS),"[6]; 4× 100 mg/kg p.o., HPMC",74.04
"CC[C@H]1OC(=O)[C@H](C)[C@@H](O[C@H]2C[C@@](C)(OC)[C@@H](O)[C@H](C)O2)[C@H](C)[C@@H](O[C@@H]2O[C@H](C)C[C@H](N(C)C)[C@H]2O)[C@](C)(OC)C[C@@H](C)C(=O)[C@H](C)[C@@H](O)[C@]1(C)O [Clarithromycin, reference compound]",MABA MIC,[3],8000 ng/mL
same,reduction in growth of MAC LPR in the spleens and lungs compared to the late controls,[7],significant
same,MIC,[8],8000 ng/mL
same,MIC,[9]; Mycobacterium tuberculosis,14.5 µM
same,MIC,[9],13.34 µM
same,Aero RLU,[10],22.46 µM and 18.82 µM
same,MIC,[11]; Mycobacterium avium,128000 ng/mL
same,MIC,"[11]; Mycobacterium avium, isolate MAC 101, clarithromycin susceptible, read-out: MIC",125 ng/mL
same,MIC,"[11]; Mycobacterium avium, isolate MAC 103, clarithromycin resistant, read-out: MIC",64000 ng/mL
same,MIC,"[11]; Mycobacterium avium, isolate MAC 108, clarithromycin resistant, read-out: MIC",64000 ng/mL
same,MIC,"[11]; Mycobacterium avium, isolate MAC 110, clarithromycin resistant, read-out: MIC",64000 ng/mL
same,MIC,"[11]; Mycobacterium avium, isolate MAC 216, clarithromycin resistant, read-out: MIC",32000 ng/mL
same,MIC,"[11]; Mycobacterium avium, isolate MAC 309, clarithromycin resistant, read-out: MIC",64000 ng/mL
same,MIC,"[11]; Mycobacterium avium, isolate MAC 320, clarithromycin resistant, read-out: MIC",64000 ng/mL
same,MIC,"[11]; Mycobacterium avium, isolate MAC 623, clarithromycin resistant, read-out: MIC",64000 ng/mL
same,MIC,"[11]; Mycobacterium avium, isolate MAC 625, clarithromycin resistant, read-out: MIC",64000 ng/mL
same,MIC,"[11]; Mycobacterium avium, isolate MAC 643, clarithromycin resistant, read-out: MIC",64000 ng/mL
same,MIC,"[11]; Mycobacterium avium, isolate MAC 1408, clarithromycin susceptible, read-out: MIC",250 ng/mL
same,MIC,"[11]; Mycobacterium avium, isolate MAC 3404.4, clarithromycin susceptible, read-out: MIC",125 ng/mL
same,MIC,"[11]; Mycobacterium avium, isolate MAC 9141, clarithromycin susceptible, read-out: MIC",250 ng/mL
same,MIC,"[11]; Mycobacterium avium, isolate MAC FAR, clarithromycin susceptible, read-out: MIC",125 ng/mL
same,MIC,"[11]; Mycobacterium avium, isolate MAC GRL, clarithromycin susceptible, read-out: MIC",2000 ng/mL
same,MIC,"[11]; Mycobacterium avium, isolate MAC KAL, clarithromycin susceptible, read-out: MIC",8000 ng/mL
same,MIC,"[11]; Mycobacterium avium, isolate MAC KZL, clarithromycin susceptible, read-out: MIC",1000 ng/mL
same,MIC,"[11]; Mycobacterium avium, isolate MAC Pry, clarithromycin resistant, read-out: MIC",64000 ng/mL
same,MIC,"[11]; Mycobacterium avium, isolate MAC SMT, clarithromycin susceptible, read-out: MIC",250 ng/mL
same,MIC,"[11]; Mycobacterium avium, isolate MAC TEL, clarithromycin susceptible, read-out: MIC",2000 ng/mL
same,MIC,"[11]; Mycobacterium avium, isolate MAC TRY, clarithromycin susceptible, read-out: MIC",500 ng/mL
same,MIC,"[11]; isolate MAC 224, clarithromycin resistant",128000 ng/mL
CCC[C@@H]1C[C@@H](C(=O)N[C@@H]([C@H]2O[C@H](SC)[C@H](O)[C@@H](O)[C@H]2O)[C@H](C)Cl)N(C)C1 [Clindamycin],Cure (%),"[6]; 4 × 100 mg/kg oral, DMSO",0%
same,Cure (%),"[6]; 4 × 100 mg/kg oral, HPMC",0%
same,IC50,[2]; [12],5.3 ng/mL
same,IC50,[2]; [13],< 7.8 ng/mL
same,IC50,[2]; [14],5.3 ng/mL
same,IC50,[2]; [15],5.3 ng/mL
